The values that follow come from patent US20250122181A1, “BENZIMIDAZOLES AS MODULATORS OF IL-17” (Janssen Pharmaceutica NV, priority 2021, published 2025).

Broadly, the IC50 is the concentration needed to halve the response being measured. A low value points to higher potency.

Assay [1] concerns the target IL-17A(FLAG-Tagged): IL-17RA(His-Tagged) (Homo sapiens, UniProt Q16552, K93Q). The assay is described as follows: IL-17A(FLAG-Tagged): IL-17RA(His-Tagged) Binding Disruption Eu-HTRF Assay, Protocol 1. The following applies: Protocol 1, FLAG tagged IL-17A 2.5 nM; simple average if tested more than once. From the text: An antibody directed against the FLAG tag of IL-17A (SEQ ID NO: 1) is labeled with the HTRF donor chromophore (Europium-cryptate). IL-17A is present as a dimer that is “locked into” this quaternary structure due to the formation of loop-spanning […] disulfide bridges. The construct of IL-17RA used in the assay excludes the […] portion of the receptor and is fused to a C-terminal 10×His tag (SEQ ID NO:2). An antibody directed against the His tag of the IL-17RA chimera is labeled with the HTRF acceptor chromophore (“D2”). The fluorescence-resonance energy transfer (FRET) depends on the vicinity of the donor chromophore to the acceptor, and interruption of the binding between the IL-17A and IL-17RA causes the reduction/loss of FRET. Therefore, this assay allows to evaluate the compound effect on the binding IL-17A and IL-17RA by monitoring the fluorescence intensity of donor vs acceptor. The assay was run using either Protocol 1 or Protocol 2 as described below.
Protocol 1. 40 nl of 2-fold serial diluted compound solution for total 22 dilution points is added into each well of a 1536-well, white, low-volume, non-binding plate (Greiner #782904), then 2 μl of FLAG tagged IL-17A at 2× final concentration (2.5 nM) in solution of PBS+0.01% Triton-X100 is added to each well. The assay plate is briefly centrifuged then incubated for 1 h at rt. A mixed solution is prepared containing 2×5 nM 10HIS×IL-17RA, 2×2.5 nM Eu-anti-FLAG (CISBIO), 2×5 nM D2-anti-HIS (CISBIO) in PBS+0.01% Triton-X100+200 mM Potassium Fluoride (Sigma 60238) and 2 μl of mix is added to each well of the assay plate. The plate is briefly centrifuged then incubated for 2 h at rt. The HTRF intensities at the wavelength of donor (620 nm) and acceptor (665 nm) are measured using BMG Pherastar. The ratio between intensities at two wavelengths is calculated and plotted against the compound concentration and the data is fitted to a one-site competition model to yield IC50 of the compound.
(In TR-FRET formats the signal depends on donor and acceptor labels being close together.)

Assay [2] concerns IL-17A-induced G-CSF production in human normal keratinocyte (NHK). The assay can be described thus: NHK Assay: IL-17A-induced G-CSF production in human normal keratinocyte. Format: cell-based. The following applies: IL-17A 5 ng/mL, 24 h, simple average if tested more than once. The essentials: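 IC50 derives from G-CSF in supernatants, quantified by HTRF from a standard curve, with CellTiter-Glo viability compared to DMSO control. Before a 24 h, 37°C culture of normal human keratinocytes at 3000–4000 cells/well, compound dilutions were preincubated 1 h at rt with human IL-17A (5 ng/mL final), with 0.2% DMSO and 5% FBS.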

Where only a bound is given, the exact number is not on record here.

UniProt Q16552, sequence (Q16552 with tags, fused parts or gaps K93Q): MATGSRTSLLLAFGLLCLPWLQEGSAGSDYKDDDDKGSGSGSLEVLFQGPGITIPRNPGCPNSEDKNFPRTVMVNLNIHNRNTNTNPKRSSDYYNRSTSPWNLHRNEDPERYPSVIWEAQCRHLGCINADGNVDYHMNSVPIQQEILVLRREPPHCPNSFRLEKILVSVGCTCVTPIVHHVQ

For `[2H]C1([2H])[C@@H](C(F)(F)F)NC(=O)N1[C@@H](c1ccc2[nH]c([C@@H](NC(=O)c3nonc3C)[C@@H](C)O[C@@H](C)C(F)(F)F)nc2c1)C1CC1` (relative stereo) [Example 12, N-((1R*,2R)-1-(5-((R)-Cyclopropyl((S*)-2-oxo-4-(trifluoromethyl)imidazolidin-1-yl-5,5-d2)methyl)-1H-benzo[d]imidazol-2-yl)-2-(((S)-1,1,1-trifluoropropan-2-yl)oxy)propyl)-4-methyl-1,2,5-oxadiazole-3-carboxamide], the 50% inhibitory concentration (IC50) in assay [1] and in assay [2] was less than 50 nM each time.
Consider `COC[C@H](c1ccc2[nH]c(C(NC(=O)c3nonc3C)[C@@H](C)O[C@H](C)C(F)(F)F)nc2n1)N1CC(F)(F)CNC1=O` (single isomer, unassigned) [Example 21, N-((1R*,2R)-1-(5-((S)-1-(5,5-Difluoro-2-oxotetrahydropyrimidin-1(2H)-yl)-2-methoxyethyl)-1H-imidazo[4,5-b]pyridin-2-yl)-2-(((R)-1,1,1-trifluoropropan-2-yl)oxy)propyl)-4-methyl-1,2,5-oxadiazole-3-carboxamide], for which the IC50 in assay [1] is less than 50 nM; in assay [2] (Homo sapiens, Keratinocyte), less than 50 nM.
As for `COC[C@H](c1ccc2[nH]c([C@@H](NC(=O)c3nonc3C)[C@@H](C)O[C@@H](C)C(F)(F)F)nc2c1)N1C[C@@H](C(F)(F)F)NC1=O` [Example 62, N-((1R,2R)-1-(5-((S)-2-Methoxy-1-((S)-2-oxo-4-(trifluoromethyl)imidazolidin-1-yl)ethyl)-1H-benzo[d]imidazol-2-yl)-2-(((S)-1,1,1-trifluoropropan-2-yl)oxy)propyl)-4-methyl-1,2,5-oxadiazole-3-carboxamide], the IC50 in assay [1] is less than 50 nM; in assay [2] (Homo sapiens, Keratinocyte), less than 50 nM.
As to `CC(C)n1nccc1C(=O)N[C@@H](COC(C)(C)C(F)(F)F)c1nc2ccc(CN3CC(F)(F)CNC3=O)cc2[nH]1` [Example 29, (R)—N-(1-(6-((5,5-Difluoro-2-oxotetrahydropyrimidin-1(2H)-yl)methyl)-1H-benzo[d]imidazol-2-yl)-2-((1,1,1-trifluoro-2-methylpropan-2-yl)oxy)ethyl)-1-isopropyl-1H-pyrazole-5-carboxamide], the IC50 is less than 50 nM in assay [1] and less than 50 nM in assay [2] (Homo sapiens, Keratinocyte).
Take `Cc1nonc1C(=O)N[C@@H](COC(C)(C)C(F)(F)F)c1nc2cc(CN3C[C@@](C)(C(F)(F)F)NC3=O)ccc2[nH]1` (relative stereo) [Example 58, 4-Methyl-N—((R*)-1-(5-(((S*)-4-methyl-2-oxo-4-(trifluoromethyl)imidazolidin-1-yl)methyl)-1H-benzo[d]imidazol-2-yl)-2-((1,1,1-trifluoro-2-methylpropan-2-yl)oxy)ethyl)-1,2,5-oxadiazole-3-carboxamide]: the IC50 in assay [1] is less than 50 nM; in assay [2] (Homo sapiens, Keratinocyte), less than 50 nM.
As to `[2H]C1([2H])[C@@H](C(F)(F)F)NC(=O)N1[C@H](COC1CC1)c1ccc2[nH]c([C@H](COC(C)(C)C(F)(F)F)NC(=O)c3nonc3C)nc2c1` (relative stereo) [Example 59, N—((R*)-1-(5-((S*)-2-Cyclopropoxy-1-((S*)-2-oxo-4-(trifluoromethyl)imidazolidin-1-yl-5,5-d2)ethyl)-1H-benzo[d]imidazol-2-yl)-2-((1,1,1-trifluoro-2-methylpropan-2-yl)oxy)ethyl)-4-methyl-1,2,5-oxadiazole-3-carboxamide], the IC50 in assay [1] is less than 50 nM; in assay [2] (Homo sapiens, Keratinocyte), less than 50 nM.
Take `CC(C)(OC[C@H](NC(=O)c1nonc1C1CC1)c1nc2nc(CN3C[C@@H](C(F)(F)F)NC3=O)ccc2[nH]1)C(F)(F)F` (relative stereo) [Example 39, 4-Cyclopropyl-N—((R*)-1-(5-(((S*)-2-oxo-4-(trifluoromethyl)imidazolidin-1-yl)methyl)-1H-imidazo[4,5-b]pyridin-2-yl)-2-((1,1,1-trifluoro-2-methylpropan-2-yl)oxy)ethyl)-1,2,5-oxadiazole-3-carboxamide]: the IC50 in assay [1] was more than 100 nM; in assay [2] (Homo sapiens, Keratinocyte), more than 100 nM.
On to `CC(C)n1nccc1C(=O)N[C@H](c1nc2c(F)cc([C@@H](C3CC3)N3C[C@@H](C(F)(F)F)NC3=O)cc2[nH]1)[C@@H](C)O[C@H](C)C(F)(F)F` [Example 85, N-[(1R,2R)-1-[6-[(R)-Cyclopropyl-[(4S)-2-oxo-4-(trifluoromethyl)imidazolidin-1-yl]methyl]-4-fluoro-1H-benzimidazol-2-yl]-2-[(1R)-2,2,2-trifluoro-1-methyl-ethoxy]propyl]-2-isopropyl-pyrazole-3-carboxamide], for which the IC50 was 50 to 100 nM in assay [1] and less than 50 nM in assay [2] (Homo sapiens, Keratinocyte).
With `C[C@H](c1ccc2[nH]c([C@H](COC(C)(C)C(F)(F)F)NC(=O)c3nonc3C3CC3)nc2c1)N1CC(F)(F)CNC1=O` (relative stereo) [Example 25, 4-Cyclopropyl-N—((R)-1-(5-((R*)-1-(5,5-difluoro-2-oxotetrahydropyrimidin-1(2H)-yl)ethyl)-1H-benzo[d]imidazol-2-yl)-2-((1,1,1-trifluoro-2-methylpropan-2-yl)oxy)ethyl)-1,2,5-oxadiazole-3-carboxamide], the IC50 is less than 50 nM in assay [1] and less than 50 nM in assay [2] (Homo sapiens, Keratinocyte).
On to `C[C@@H](O[C@H](C)C(F)(F)F)C(NC(=O)c1nonc1C1CC1)c1nc2nc([C@@H](C3CC3)N3CC(F)(F)CNC3=O)ccc2[nH]1` (single isomer, unassigned) [Example 20, 4-Cyclopropyl-N-((1R*,2R)-1-(5-((R)-cyclopropyl(5,5-difluoro-2-oxotetrahydropyrimidin-1(2H)-yl)methyl)-1H-imidazo[4,5-b]pyridin-2-yl)-2-(((R)-1,1,1-trifluoropropan-2-yl)oxy)propyl)-1,2,5-oxadiazole-3-carboxamide], for which the 50% inhibitory concentration (IC50) in assay [1] was less than 50 nM; in assay [2] (Homo sapiens, Keratinocyte), less than 50 nM.
In the case of `COC[C@H](c1ccc2[nH]c(C(COC(C)(C)C(F)(F)F)NC(=O)c3cnn(CC4CC4)n3)nc2c1)N1CC(F)(F)CNC1=O` (single isomer, unassigned) [Example 51, 2-(Cyclopropylmethyl)-N—((R*)-1-(5-((S)-1-(5,5-difluoro-2-oxotetrahydropyrimidin-1(2H)-yl)-2-methoxyethyl)-1H-benzo[d]imidazol-2-yl)-2-((1,1,1-trifluoro-2-methylpropan-2-yl)oxy)ethyl)-2H-1,2,3-triazole-4-carboxamide], the IC50 in assay [1] was less than 50 nM; in assay [2] (Homo sapiens, Keratinocyte), 50 to 100 nM.
In the case of `CC(C)n1ncc(F)c1C(=O)N[C@@H](COC(C)(C)C(F)(F)F)c1nc2cc([C@@H](C3CC3)N3C[C@@H](C(F)(F)F)NC3=O)ccc2[nH]1` [Example 3, N—((R)-1-(5-((R)-Cyclopropyl((S)-2-oxo-4-(trifluoromethyl)imidazolidin-1-yl)methyl)-1H-benzo[d]imidazol-2-yl)-2-((1,1,1-trifluoro-2-methylpropan-2-yl)oxy)ethyl)-4-fluoro-1-isopropyl-1H-pyrazole-5-carboxamide], the IC50 was less than 50 nM in assay [1] and less than 50 nM in assay [2] (Homo sapiens, Keratinocyte).
For the compound `COCC(c1ccc2[nH]c([C@H](COC(C)(C)C(F)(F)F)NC(=O)c3nonc3C)nc2c1)N1CC(C)(C)NC1=O` (single isomer, unassigned) [Example 49, N—((R)-1-(5-((S*)-1-(4,4-Dimethyl-2-oxoimidazolidin-1-yl)-2-methoxyethyl)-1H-benzo[d]imidazol-2-yl)-2-((1,1,1-trifluoro-2-methylpropan-2-yl)oxy)ethyl)-4-methyl-1,2,5-oxadiazole-3-carboxamide], the IC50 in assay [1] and in assay [2] was more than 100 nM each time.
Turning to `CC(C)(OC[C@H](NC(=O)c1nonc1C1CC1)c1nc2cc(CN3C[C@](C)(C(F)(F)F)NC3=O)ccc2[nH]1)C(F)(F)F` (relative stereo) [Example 60, 4-Cyclopropyl-N—((R*)-1-(5-(((R*)-4-methyl-2-oxo-4-(trifluoromethyl)imidazolidin-1-yl)methyl)-1H-benzo[d]imidazol-2-yl)-2-((1,1,1-trifluoro-2-methylpropan-2-yl)oxy)ethyl)-1,2,5-oxadiazole-3-carboxamide], the IC50 in assay [1] is less than 50 nM; in assay [2] (Homo sapiens, Keratinocyte), less than 50 nM.
